We go through 7 compounds from US9290528B1, “Light-activated compounds” (University of Kentucky Research Foundation, priority 2013, dated 2016).

This test is described as follows: Light and dark cytotoxicity of exemplary compounds (Table 6). The format is cell-based. The note with it: for IC50: cell line not stated; for Phototoxicity Index: dark IC50/light IC50. An excerpt:
This Example describes additional specific embodiments the presently-disclosed subject matter. […] The methods for making and characterizing the compounds are based on the methodologies described in the previous examples.

As usually defined, the IC50 is the concentration at which inhibition is half-maximal.

Like-named read-outs stand apart in the source and are kept apart here.

In the case of `Cc1cc(-c2ccccc2)c2ccc3c(-c4ccccc4)cc(C)nc3c2n1.[Ru+2].c1ccc(-c2ccccn2)nc1.c1ccc(-c2ccccn2)nc1` [Ru(bpy)2bathocuprione], the “Phototoxicity Index” value worked out at 8.18. For the same compound, the concentration for half-maximal inhibition (IC50) (read-out: Dark IC50) is 27 µM. Besides, the IC50 (read-out: Light IC50) was determined as 3.3 µM.

In the case of `Cc1ccc2ccc3ccc(C)nc3c2n1.[Ru+2].c1ccc(-c2ccccn2)nc1.c1ccc(-c2ccccn2)nc1` [Ru(bpy)2dmphen], the “Phototoxicity Index” value stood at 20. For the same compound, for the setting “read-out: Dark IC50”, the 50% inhibitory concentration (IC50) stood at 8 µM. For the same compound, the IC50 (read-out: Light IC50) came out at 0.4 µM.

In the case of `Cc1ccc2ccc3ccc(C)nc3c2n1.Cc1ccc2ccc3ccc(C)nc3c2n1.[Ru+2].c1ccc(-c2ccnc3c2ccc2c(-c4ccccc4)ccnc23)cc1` [Ru(dmphen)2bathophen], the “Phototoxicity Index” value is 2.5. Further, the IC50 (read-out: Dark IC50) was determined as 4.5 µM. For the same compound, the 50% inhibitory concentration (IC50) (read-out: Light IC50) is 1.7 µM.

Turning to `Cc1ccc2ccc3ccc(C)nc3c2n1.Cc1ccc2ccc3ccc(C)nc3c2n1.[Ru+2].c1ccc(-c2ccccn2)nc1` [Ru(dmphen)2bpy], the “Phototoxicity Index” value is 125. For the same compound, the IC50 (read-out: Dark IC50) stood at 150 µM. Where the note is “read-out: Light IC50”, the IC50 is 1.2 µM.

Take `Cc1ccc2ccc3ccc(C)nc3c2n1.Cc1ccc2ccc3ccc(C)nc3c2n1.[Ru+2].c1ccc2nc3c4cccnc4c4ncccc4c3nc2c1` [Ru(dmphen)2dppz]: the “Phototoxicity Index” value is given as 300. Besides, the 50% inhibitory concentration (IC50) (read-out: Dark IC50) amounted to 150 µM. For the same compound, the IC50 (read-out: Light IC50) amounted to 0.5 µM.

For `Cc1ccc2ccc3ccc(C)nc3c2n1.Cc1ccc2ccc3ccc(C)nc3c2n1.[Ru+2].c1cnc2c(c1)c1nccnc1c1cccnc12` [Ru(dmphen)2dpq], the “Phototoxicity Index” value was 1,130. The IC50 (read-out: Dark IC50) is 250 µM. Besides, the IC50 (read-out: Light IC50) was 0.22 µM.

For `Cc1ccc2ccc3ccc(C)nc3c2n1.Cc1ccc2ccc3ccc(C)nc3c2n1.[Ru+2].c1cnc2c(c1)ccc1cccnc12` [Ru(dmphen)2phen], the “Phototoxicity Index” value was 250. For the setting “read-out: Dark IC50”, the concentration for half-maximal inhibition (IC50) was determined as 35 µM. Also, the half-maximal inhibitory concentration (IC50) (read-out: Light IC50) amounted to 0.14 µM.
